Source: patent US12144795B2, “Cannabidiol compositions having modified cannabinoid profiles” (priority 2018, dated 2024)
Converted amounts (≈) assume the structure as drawn. Read-outs that look alike come from different tables or passages of the source.

Assays:
[1] = Evaporative crystallization from solvent mixtures, form by HT-XRPD before and after AAC; type: physicochemical; details: Acetonitrile / Water (50/50, v/v)
Description: Recrystallization experiments were conducted to screen for potential CBD polymorphs and evaluate the ability of the recrystallized CBD to expel impurities. The following recrystallization methods were undertaken: • evaporative crystallization from solvent mixtures; • antisolvent crystallization; • cooling crystallization; • single solvent drop grinding; • crystallization by crash-cooling; • vapor-diffusion-into-solution crystallization; and • crystallization by liquid diffusion. In each method, the starting material consisted of crystallized CBD of form A. Evaporative Crystallization from Solvent Mixtures
Without wishing to be bound by theory, the general principle behind evaporative crystallization using solvent anti-solvent mixtures is that the solvent evaporates, first causing the API to precipitate to some extent, and this material then acts as a seed, when the anti-solvent is evaporated. The first evaporation step is slow and is followed by a faster final evaporation phase. All crystalline samples were Form A both before and after the solids were exposed to accelerated ageing conditions. An oil-like substance was obtained from an acetonitrile/water solvent mixture that could not be analyzed by XRPD; therefore, this sample was not exposed to accelerated aging conditions.

[2] = Crash cooling crystallization, XRPD before and after AAC; type: physicochemical; details: for Dissolved at start / Solids after T profile / Solid form by HT-XRPD Evaporation of ML Before: 50 mg/mL
Description: As a variation on the above cooling crystallization experiments, several crash cooling crystallization were performed. In order to modulate the solubility of cannabidiol, crash cooling experiments were performed in solvent mixtures. Clear solutions of 50 mg/mL of cannabidiol were prepared in solvent mixtures and rapidly cooled in an ice bath. Vials were then placed at −20° C. for 48 hours. Precipitated solids and mother liquors were treated as described above for the ordinary cooling crystallization experiments. Only from heptane/pentane cooling did there result in the precipitation of a solid. […] When no XRPD record was generated, the field is defined as “Not Applicable” (N/A) in Table 29.

[3] = Vapor-diffusion-into-solution crystallization, solid form after evaporation; type: physicochemical
Text: The open vials were placed in a larger container with anti-solvent and the vapors were allowed to diffuse into the cannabidiol solution for two weeks. The effect of the anti-solvent, however, was too low to induce any precipitation of cannabidiol and, therefore, it was decided to evaporate the mother liquors and analyze the remaining solids. Crystalline solid was only found after evaporation of the Toluene/2,2,4-Trimethylepentane solution.

[4] = Cannabidiol solubility in neat solvents and mixtures, isooctane solubility curve; type: physicochemical; details: for solubility: read-out: Solubility at RT
Text: Isooctane was selected as the final crystallization solvent due the low solubility and similar properties to heptane, i.e., low viscosity and boiling point relative to other higher hydrocarbons (Table 33). Based on the solubility and desire to maximize yield, an isooctane volume of 4.0 L/kg was selected as an appropriate crystallization concentration. Prior to crystallization, it was desired to fully dissolve the CBD in isooctane and filter the process stream. […] The isolation temperature of −20° C. was chosen to maximize the yield of the CBD from the final crystallization.

[5] = Solubility of CBD in crude CBD mother liquor and heptane as a function of temperature (Crystal 16); details: CBD concentration of ca. 296 mg/ml (3.5 L/kg), crude CBD mother liquor
Description: To determine an appropriate seeding temperature of CBD, a Crystal 16 instrument was employed to measure the solubility in crude CBD mother liquor, a mixture of heptane and process impurities, and pure heptane.

[6] = solvent 1,4-Dioxane, anti-solvent 2,2,4-Trimethylpentane
[7] = solvent 1,4-Dioxane, anti-solvent Water
[8] = solvent 2-Methoxyethanol, anti-solvent 2,2,4-Trimethylpentane
[9] = solvent 4-methyl-2-pentanone, anti-solvent 2,2,4-Trimethylpentane
[10] = solvent Acetonitrile, anti-solvent Water
[11] = solvent Ethyl acetate, anti-solvent 2,2,4-Trimethylpentane
[12] = solvent Isobutanol, anti-solvent Water
[13] = solvent Isopropanol, anti-solvent Water
[14] = solvent Tetrahydrofuran, anti-solvent Water

In the case of C=C(C)[C@@H]1CCC(C)=C[C@H]1c1c(O)cc(CCCCC)cc1O [CBD, (1′R,2′R)-5′-methyl-4-pentyl-2′-(prop-1-en-2-yl)-1′,2′,3′,4′-tetrahydro-[1,1′-biphenyl]-2,6-diol], the “Form by HT-XRPD Before AAC” value [1] is reported as “Oily”, the Dissolved at start ([2]; 1,4-Dioxane/Water (80/20)) is reported as “Yes” and the “Solids after T profile” value ([2]; 1,4-Dioxane/Water (80/20)) is reported as “No”. For the same compound, the “Effect of accelerated aging conditions” value ([2]; 40° C./75% RH for two days) was “no effect on the physical appearance”, the Dissolved at start ([2]; Acetone/2,2,4-Trimethylpentane) was “Yes” and the “Solids after T profile” value ([2]; Acetone/2,2,4-Trimethylpentane) was “No”. For the same compound, the Dissolved at start ([2]; Acetone/Water (80/20)) was “Yes”, the “Solid form by HT-XRPD Evaporation of ML Before” value (“Solid form … of ML Before” for short) ([2]; Acetone/Water (80/20)) was “Oily” and the “Solids after T profile” value ([2]; Acetone/Water (80/20)) was “No”. For the same compound, the Dissolved at start ([2]; Acetonitrile/Water (80/20)) was “Yes”, the “Solids after T profile” value ([2]; Acetonitrile/Water (80/20)) was “No” and the Dissolved at start ([2]; Chloroform/Hexane (50/50)) was “Yes”. For the same compound, the “Solids after T profile” value ([2]; Chloroform/Hexane (50/50)) was “No”, the Dissolved at start ([2]; Ethanol/2,2,4-Trimethylpentane) was “Yes” and the “Solids after T profile” value ([2]; Ethanol/2,2,4-Trimethylpentane) was “No”. For the same compound, the Dissolved at start ([2]; Ethyl formate/Decane) was “Yes”, the “Solid form … of ML Before” value ([2]; Ethyl formate/Decane) was “Oily” and the “Solids after T profile” value ([2]; Ethyl formate/Decane) was “No”. For the same compound, the Dissolved at start ([2]; Heptane/Pentane (50/50)) was “Yes”, the “Solids after T profile” value ([2]; Heptane/Pentane (50/50)) was “Yes” and the Dissolved at start ([2]; Isopropanol/Decane (50/50)) was “Yes”. For the same compound, the “Solids after T profile” value ([2]; Isopropanol/Decane (50/50)) was “No”, the Dissolved at start ([2]; Tetrahydrofuran/Water (80/20)) was “Yes” and the “Solid form … of ML Before” value ([2]; Tetrahydrofuran/Water (80/20)) was “Oily”. The “Solids after T profile” value ([2]; Tetrahydrofuran/Water (80/20)) was “No”, the “Polymorphic form of precipitated solid” value ([2]; heptane/pentane, crash cooling, −20° C. for 48 hours) was “same polymorphic form as the starting material Form A” and the “Effect of accelerated aging conditions” value [3] was “no effect on the physical appearance”. The “XRPD of solid after evaporation” value ([3]; Toluene/2,2,4-Trimethylepentane solution) was “Form A”, the “Precipitation?” value [3, 6] was “No” and the “Solid form after evaporation After AAC” value [3, 6] was “Oil”. The “Solid form after evaporation Before AAC” value [3, 6] was “Oil”, the “Precipitation?” value [3, 7] was “No” and the “Solid form after evaporation After AAC” value [3, 7] was “Oil”. The “Solid form after evaporation Before AAC” value [3, 7] was “Oil”, the “Precipitation?” value [3, 8] was “No” and the “Solid form after evaporation After AAC” value [3, 8] was “Oil”. For the same compound, the “Solid form after evaporation Before AAC” value [3, 8] was “Oil”, the “Precipitation?” value [3, 9] was “No” and the “Solid form after evaporation After AAC” value [3, 9] was “Oil”. For the same compound, the “Solid form after evaporation Before AAC” value [3, 9] was “Oil”, the “Precipitation?” value [3, 10] was “No” and the “Solid form after evaporation After AAC” value [3, 10] was “Oil”. The “Solid form after evaporation Before AAC” value [3, 10] was “Oil”, the “Precipitation?” value [3, 11] was “No” and the “Solid form after evaporation After AAC” value [3, 11] was “Oil”. For the same compound, the “Solid form after evaporation Before AAC” value [3, 11] was “Oil”, the “Precipitation?” value [3, 12] was “No” and the “Solid form after evaporation After AAC” value [3, 12] was “Oil”. For the same compound, the “Solid form after evaporation Before AAC” value [3, 12] was “Oil”, the “Precipitation?” value [3, 13] was “No” and the “Solid form after evaporation After AAC” value [3, 13] was “Oil”. For the same compound, the “Solid form after evaporation Before AAC” value [3, 13] was “Oil”, the “Precipitation?” value [3, 14] was “No” and the “Solid form after evaporation After AAC” value [3, 14] was “Oil”. The “Solid form after evaporation Before AAC” value [3, 14] was “Oil”, the “Precipitation?” value ([3]; solvent Toluene, anti-solvent 2,2,4-Trimethylpentane) was “No” and the solubility ([4]; 1,2-dimethoxyethane, organic solvent or mixture) was > 100 mg/mL. The solubility ([4]; 1,4-dioxane, organic solvent or mixture) was > 100 mg/mL, the solubility ([4]; 1-propanol, organic solvent or mixture) was > 100 mg/mL and the solubility ([4]; 2-butanone, organic solvent or mixture) was > 100 mg/mL. For the same compound, the solubility ([4]; 10/90 water/ethanol, organic solvent or mixture) was > 100 mg/mL, the solubility ([4]; 30/70 water/IPA, organic solvent or mixture) was > 20 mg/mL and the solubility ([4]; 30/70 water/ethanol, organic solvent or mixture) was 20 to 70 mg/mL (≈ 63.6 to 223 mM). The “Solubility at RT” value ([4]; 40/60 Water Methanol) was “oil”, the “Solubility at RT” value ([4]; 45/65 Water Methanol) was 3.4 mg/mL (≈ 10.8 mM) and the “Solubility at RT” value ([4]; 50/50 Water/Methanol) was 0.3 mg/mL (≈ 0.954 mM). The solubility ([4]; 50/50 water/IPA, aqueous with cosolvent or surfactant or cyclodextrin) was 10 to 20 mg/mL (≈ 31.8 to 63.6 mM), the solubility ([4]; 50/50 water/ethanol, aqueous with cosolvent or surfactant or cyclodextrin) was < 5 mg/mL and the solubility ([4]; ACN, organic solvent or mixture) was > 100 mg/mL. The solubility ([4]; CIP 100, aqueous with cosolvent or surfactant or cyclodextrin) was < 1 mg/mL, the solubility ([4]; CIP 200, aqueous with cosolvent or surfactant or cyclodextrin) was < 1 mg/mL and the solubility ([4]; DCM, organic solvent or mixture) was > 100 mg/mL. The solubility ([4]; EtOAc, organic solvent or mixture) was > 100 mg/mL, the solubility ([4]; EtOH, organic solvent or mixture) was > 100 mg/mL and the solubility ([4]; IPA, organic solvent or mixture) was > 100 mg/mL. For the same compound, the solubility ([4]; IPOAc, organic solvent or mixture) was > 100 mg/mL, the solubility ([4]; MTBE, organic solvent or mixture) was > 100 mg/mL and the solubility ([4]; MeOH, organic solvent or mixture) was > 100 mg/mL. The solubility ([4]; MeTHF saturated with water, organic solvent or mixture) was > 100 mg/mL, the solubility ([4]; MeTHF, organic solvent or mixture) was > 100 mg/mL and the solubility ([4]; NMPO, organic solvent or mixture) was > 100 mg/mL. For the same compound, the solubility ([4]; THF, organic solvent or mixture) was > 100 mg/mL, the solubility ([4]; acetone, organic solvent or mixture) was > 100 mg/mL and the solubility ([4]; anisole, organic solvent or mixture) was > 100 mg/mL. For the same compound, the solubility ([4]; chloroform, organic solvent or mixture) was > 100 mg/mL, the solubility ([4]; cumene, organic solvent or mixture) was > 100 mg/mL and the solubility ([4]; cyclohexane, organic solvent or mixture) was > 100 mg/mL. For the same compound, the solubility ([4]; diethyl ether, organic solvent or mixture) was > 100 mg/mL, the solubility ([4]; ethyl formate, organic solvent or mixture) was > 100 mg/mL and the solubility ([4]; heptane, organic solvent or mixture) was 64.6 mg/mL (≈ 205 mM). The solubility ([4]; isobutanol, organic solvent or mixture) was > 100 mg/mL, the solubility ([4]; isooctane, organic solvent or mixture) was 43.9 mg/mL (≈ 140 mM) and the solubility ([4]; methylcyclohexane, organic solvent or mixture) was > 100 mg/mL. The solubility ([4]; n-decane, organic solvent or mixture) was 36.8 mg/mL (≈ 117 mM), the solubility ([4]; n-hexane, organic solvent or mixture) was > 100 mg/mL and the solubility ([4]; p-xylene, organic solvent or mixture) was > 100 mg/mL. The solubility ([4]; silicone oil, oil or lipid, Silcone oil) was 9.7 mg/mL (≈ 30.8 mM), the solubility ([4]; toluene, organic solvent or mixture) was > 100 mg/mL and the solubility ([4]; water) was < 0.13 mg/mL. The “solubility temperature of CBD” value [5] was 29-30 °C.
